Test results as given in patent US7244727B2, “Fused bicyclic nitrogen-containing heterocycles” (Japan Tobacco Inc., priority 2002, dated 2007).
“And” between values parts separate entries of the source, which are not always exact repeats. Equal entries are not always repeated.

Columns and labels:
human DGAT1 = target: T1, human DGAT1 (Homo sapiens, UniProt O75907); experiment: DGAT Scintillation Proximity Assay (SPA) with membranes of insect cells expressing human flagtag DGAT1; assay type: biochemical; conditions: read-out: hDGAT1 IC50
T1 construct: made in house; host or cells: insect cells (sf9, sf21 or High Five) infected with baculovirus; total cell membranes
T1 sequence (O75907 1-488): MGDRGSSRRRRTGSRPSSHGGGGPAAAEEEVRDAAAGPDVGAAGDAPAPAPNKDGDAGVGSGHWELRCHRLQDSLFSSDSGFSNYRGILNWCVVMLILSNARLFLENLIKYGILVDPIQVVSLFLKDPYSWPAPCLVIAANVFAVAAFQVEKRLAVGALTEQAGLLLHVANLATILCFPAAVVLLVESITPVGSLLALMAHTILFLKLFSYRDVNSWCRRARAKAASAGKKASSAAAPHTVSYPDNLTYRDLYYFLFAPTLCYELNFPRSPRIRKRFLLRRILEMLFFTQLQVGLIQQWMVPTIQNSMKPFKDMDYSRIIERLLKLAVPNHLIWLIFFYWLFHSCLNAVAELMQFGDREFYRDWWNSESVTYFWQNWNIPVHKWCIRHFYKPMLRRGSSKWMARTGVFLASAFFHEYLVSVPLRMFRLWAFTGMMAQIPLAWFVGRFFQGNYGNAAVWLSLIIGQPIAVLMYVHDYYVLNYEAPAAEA
Protocol: In such an assay human DGAT1 is cloned from a human liver cDNA library. PCR is used to add a restriction site and flag epitope at the most 5′ end and a restriction site at the 3′ end of the sequence. Thereafter, human flagtag (FT) DGAT1 baculovirus may be generated using a Bac-to-Bac Baculovirus Expression System® (Invitrogen). Insect cells (e.g., sf9, sf2 1, or High Five) are infected for 24 to 72 h and collected by centrifugation. Cell pellets are resuspended in homogenization buffer and lysed using a homogenization device, such as a Microfluidizer. Total cell membranes are collected by ultracentrifugation at 45,000 rpm for 1 h.
A small aliquot (0.2 μg/well) of membrane is incubated with 10 μM compound or mercuric chloride (as positive control for inhibition) in the presence of enzyme substrate, dioleoyl glycerol (200 μM) in 384 well plates, final volume 50 gL per well. […] The reaction is stopped by adding Wheat Germ Agglutinin (WGA) SPA beads (0.2 mg) in mercuric chloride. Cell membranes are allowed to couple to the beads overnight. The signal can be measured using, for example, a Chemiluminescence Image Plate Reader (CLIPR) or TopCount device.

Row | Compound | IC50 (human DGAT1) | melting point
1 | CN1CCN(C(=O)C[C@H]2CC[C@H](c3ccc(C4=Nc5c(N)ncnc5OC4(C)C)cc3)CC2)CC1 [Example 2-92] | 0.01 to 0.1 µM | 113 to 115 °C
2 | Nc1nc(N)c2c(n1)OCC(c1ccc(Br)cc1)=N2 [Example 1-26] | > 0.1 µM | > 220 °C
3 | CC1(C)Oc2ncnc(N)c2N=C1c1ccc([C@H]2CC[C@H](CC(=O)N3CCN(CCO)CC3)CC2)cc1 [Example 2-97] | 0.01 to 0.1 µM | 225 to 226 °C
4 | Nc1ncnc2c1NC(c1ccc(Br)cc1)C1(CCCC1)O2 (centres unmarked) [Example 2-14] | > 0.1 µM | 226 to 233 °C
5 | CC1(C)Oc2ncnc(N)c2N=C1c1ccc([C@H]2CC[C@H](CC(=O)N3CCC(CCO)CC3)CC2)cc1 [Example 2-96] | 0.01 to 0.1 µM | 112 to 113 °C
6 | CC1(C)Oc2ncnc(N)c2N=C1c1ccc2c(c1)C(CC(=O)O)CCC2 (centres unmarked) [Example 2-68] | > 0.1 µM | > 250 °C
7 | CN(CCO)C(=O)C[C@H]1CC[C@H](c2ccc(C3=Nc4c(N)ncnc4OC3(C)C)cc2)CC1 [Example 2-99] | 0.01 to 0.1 µM | 113 to 115 °C
8 | CC1(C)Oc2ncnc(N)c2N=C1c1ccc([C@H]2CC[C@H](CC(=O)N3CCCC3)CC2)cc1 [Example 2-94] | 0.01 to 0.1 µM | 232 to 233 °C
9 | CC1(C)Oc2ncnc(N)c2N=C1c1ccc([C@H]2CC[C@H](CC(=O)N3CCCCC3)CC2)cc1 [Example 2-93] | 0.01 to 0.1 µM | 146 to 147 °C
10 | CC(C)(O)C[C@H]1CC[C@H](c2ccc(C3=Nc4c(N)ncnc4OC3(C)C)cc2)CC1 [Example 2-78] | 0.01 to 0.1 µM | 185 to 187 °C
11 | CC(C)c1ccc(C2=Nc3c(N)ncnc3OC2)cc1 [Example 1-9] | > 0.1 µM | 176 to 178 °C
12 | CC1(C)Oc2ncnc(N)c2N=C1c1ccc(OC2CCCCC2)cc1 [Example 2-32] | > 0.1 µM | 174 to 175 °C
13 | Nc1ncnc2c1N=C(c1c(F)c(F)c(F)c(F)c1F)CO2 [Example 1-31] | > 0.1 µM | 190 to 192 °C
14 | COc1ccc(C2=Nc3c(N)ncnc3OC2)cc1 [Example 1-12] | > 0.1 µM | 191 to 193 °C
15 | CC1(C)Oc2ncnc(N)c2NC1c1ccccc1 (centres unmarked) [Example 2-8] | > 0.1 µM | > 220 °C
16 | CC1(C)Oc2ncnc(N)c2NC1c1ccc([C@H]2CC[C@H](Cc3nn[nH]n3)CC2)cc1 (some centres unmarked) [Example 2-76] | 0.01 to 0.1 µM | > 250 °C
17 | CC1(C)Oc2ncnc(N)c2N=C1c1ccc(C2(C)CCC(CC(=O)O)CC2)cc1 (centres unmarked) [Example 2-67] | 0.01 to 0.1 µM | > 250 °C
18 | CC1(C)Oc2ncnc(N)c2N=C1c1ccc([C@H]2CC[C@H](OCC(=O)O)CC2)cc1 [Example 2-62] | 0.01 to 0.1 µM | > 230 °C
19 | CC1(C)Oc2ncnc(N)c2N=C1c1ccc2c(c1)CC(CC(=O)O)C2 (centres unmarked) [Example 2-72] | 0.01 to 0.1 µM | > 250 °C
20 | CC(C(=O)O)[C@H]1CC[C@H](c2ccc(C3=Nc4c(N)ncnc4OC3(C)C)cc2)CC1 (some centres unmarked) [Example 2-69] | < 0.01 µM | > 250 °C
21 | CC1(C)Oc2ncnc(N)c2N=C1c1ccc([C@H]2CC[C@H](CC(=O)N3C[C@@H](O)[C@@H](O)C3)CC2)cc1 [Example 2-106] | 0.01 to 0.1 µM | 250 to 252 °C
22 | CC1(C)Oc2ncnc(N)c2N=C1c1ccc(Cl)cc1 | – | 210 to 211 °C
23 | CC1(C)Oc2ncnc(N)c2N=C1c1ccc(O)cc1 | – | 245 to 246 °C
24 | CC1(C)Oc2ncnc(N)c2N=C1c1ccc(C2CCC(F)(F)CC2)cc1 | – | 226 to 227 °C
25 | CC1(C)Oc2ncnc(N)c2N=C1c1ccc(Br)cc1 | – | 201 to 203 °C
26 | COc1ccc(C2=Nc3c(N)ncnc3OC2(C)C)cc1 | – | 183 to 184 °C

Next, values leading:

Row | IC50 (human DGAT1) | melting point | Compound
27 | < 0.01 µM | 225 to 226 °C | Cc1nc(N)c2c(n1)OC(C)(C)C(c1ccc([C@H]3CC[C@H](CC(=O)NS(C)(=O)=O)CC3)cc1)=N2 [Example 2-134]
28 | 0.01 to 0.1 µM | 220 to 225 °C | Cc1nc(N)c2c(n1)OC(C)(C)C(c1ccc([C@H]3CC[C@H](C(=O)NC(C)(C)CO)CC3)cc1)=N2 [Example 2-257]
29 | 0.01 to 0.1 µM | 217 to 218 °C | CC1(C)Oc2ncnc(N)c2N=C1c1ccc([C@H]2CC[C@H](CNC(=O)[C@@H]3C[C@@H](O)CN3)CC2)cc1 [Example 2-132]
30 | 0.01 to 0.1 µM | 249 to 250 °C | Cc1nc(N)c2c(n1)OC(C)(C)C(c1ccc([C@H]3CC[C@H](CNC(=O)C(C)(C)CO)CC3)cc1)=N2 [Example 2-139]
31 | 0.01 to 0.1 µM | 226 to 230 °C | CC1(C)Oc2ncnc(N)c2N=C1c1ccc([C@H]2CC[C@H](NC(=O)CO)CC2)cc1 [Example 2-234]
32 | 0.01 to 0.1 µM | 229 to 230 °C | Cc1nc(N)c2c(n1)OC(C)(C)C(c1ccc([C@H]3CC[C@H](CC(=O)NC(C)(C)CO)CC3)cc1)=N2 [Example 2-135]
33 | < 0.01 µM | > 269 °C | Cc1nc(N)c2c(n1)OC(C)(C)C(c1ccc([C@H]3CC[C@H](CC(=O)O)CC3)c(F)c1)=N2 [Example 6-9]
34 | > 0.1 µM | 130 to 131 °C | CC1(C)Oc2ncnc(N)c2N=C1c1cccc(OCc2ccccc2)c1 [Example 5-2]
35 | 0.01 to 0.1 µM | 172 to 175 °C | Cc1nc(N)c2c(n1)OC(C)(C)C(c1ccc([C@H]3CC[C@H](C(=O)NS(C)(=O)=O)CC3)cc1)=N2 [Example 2-256]
36 | 0.01 to 0.1 µM | > 250 °C | Cc1nc(N)c2c(n1)OC(C)(C)C(c1ccc([C@H]3CC[C@H](C(=O)Nc4nn[nH]n4)CC3)cc1)=N2 [Example 2-264]
37 | > 0.1 µM | 224 to 229 °C | CC(O)[C@H]1CC[C@H](c2ccc(C3=Nc4c(N)ncnc4OC3(C)C)cc2)CC1 (some centres unmarked) [Example 2-233]
38 | 0.01 to 0.1 µM | 222 to 225 °C | Cc1nc(N)c2c(n1)OC(C)(C)C(c1ccc([C@H]3CC[C@H](CNC(=O)C(O)CCO)CC3)cc1)=N2 (some centres unmarked) [Example 2-164]
39 | 0.01 to 0.1 µM | 210 to 211 °C | Cc1nc(N)c2c(n1)OC(C)(C)C(c1ccc([C@H]3CC[C@H](CC(=O)N4CC(O)C(O)C4)CC3)cc1)=N2 (some centres unmarked) [Example 2-136]
40 | 0.01 to 0.1 µM | 160 to 166 °C | Cc1nc(N)c2c(n1)OC(C)(C)C(c1ccc([C@H]3CC[C@H](CNC(N)=O)CC3)c(Cl)c1)=N2 [Example 6-23]
41 | > 0.1 µM | 233 to 235 °C | CC1(C)Oc2ncnc(N)c2N=C1c1ccc([C@H]2CC[C@H](C(=O)N3CCOCC3)CC2)cc1 [Example 2-239]
42 | 0.01 to 0.1 µM | 193 to 194 °C | CC1(C)Oc2ncnc(N)c2N=C1c1ccc([C@H]2CC[C@H](C(=O)N3CCCC3C(=O)O)CC2)cc1 (some centres unmarked) [Example 2-208]
43 | < 0.01 µM | > 250 °C | Cc1nc(N)c2c(n1)OC(C)(C)C(c1ccc([C@H]3CC[C@H](CCC(=O)Nc4nn[nH]n4)CC3)cc1)=N2 [Example 2-201]
44 | > 0.1 µM | 117 to 133 °C and 117.2 to 133.4 °C | CC1(C)Oc2ncnc(N)c2N=C1c1cccc(Cl)c1 [Example 5]
45 | > 0.1 µM | > 250 °C | Cc1nc(N)c2c(n1)OC(C)(C)C(c1ccc([C@H]3CC[C@H](CN4CCOC4=O)CC3)c(Cl)c1)=N2 [Example 6-17]
46 | > 0.1 µM | 198 to 200 °C | CC1(C)Oc2ncnc(N)c2N=C1c1ccc([C@H]2CC[C@H](CN3CCC(CCO)CC3)CC2)cc1 [Example 2-227]
47 | 0.01 to 0.1 µM | 238 to 239 °C | CC(=O)NCC[C@H]1CC[C@H](c2ccc(C3=Nc4c(N)ncnc4OC3(C)C)cc2)CC1 [Example 2-174]
48 | 0.01 to 0.1 µM | 250 °C (dec.) | Cc1nc(N)c2c(n1)OC(C)(C)C(c1ccc([C@H]3CC[C@H](CCc4nc(=O)on4C)CC3)cc1)=N2 [Example 2-197]
49 | 0.01 to 0.1 µM | 210 to 212 °C | CCCN(C)C(=O)CC[C@H]1CC[C@H](c2ccc(C3=Nc4c(N)ncnc4OC3(C)C)cc2)CC1 [Example 2-190]
50 | – | > 300 °C | Cc1nc(N)c2c(n1)OC(C)(C)C(c1ccc([C@H]3CC[C@H](Cc4n[nH]c(=O)[nH]4)CC3)c(Cl)c1)=N2 [Example 6-5]
51 | – | 198 to 200 °C | Cc1nc(N)c2c(n1)OC(C)(C)C(c1ccc([C@H]3CC[C@H](CCc4noc(C(F)(F)F)n4)CC3)cc1)=N2 [Example 2-199]
